Test results taken from PMC10955127 (Frontiers in Pharmacology, 2024).
“Also recorded” adds a separate entry of the source. Where two headings read alike, the source gives them in different places.

Experiments:
rats = settings: teratogenic and embryotoxic effects; ref SCCS, 2023b; cited from earlier work
androgen receptor [1] = tested on: androgen receptor; set-up: method as in ToxCast database; settings: ref ToxCast database; cited from earlier work
[2] = ref PubChem or the ECHA database; cited from earlier work
androgen receptor [3] = tested on: androgen receptor; set-up: method as in ToxCast database; settings: ref ToxCast database; cited from earlier work; remark: listed apart in the source
THRa = tested on: THRa; set-up: method as in ToxCast database; settings: ref ToxCast database; cited from earlier work
estrogen receptor [4] = tested on: estrogen receptor; set-up: method as in ToxCast database; settings: ref ToxCast database; cited from earlier work
thyroid pathway = tested on: thyroid pathway; set-up: method as in ToxCast database; settings: ref ToxCast database; cited from earlier work
HepG2 cells [5] = test: Whole-genome transcriptomics dose response (toxicogenomics); settings: analysis method 1; HepG2, 24 h
[6] = tested on: HepG2 reporter cell lines; test: ToxProfiler cell stress assay; assay type: cell-based, human
hPTCs = settings: human, 72 h
HepG2 cells [7] = settings: human, 24 h
COX1(h) = COX1(h) (Homo sapiens, UniProt P23219); test: Pharmacology profiling: COX1; assay type: biochemical
Aromatase = tested on: Aromatase; set-up: method as in ToxCast database; settings: ref ToxCast database; cited from earlier work
[8] = Deterministic PBPK model of plasma concentrations; set-up: species or system human; settings: deterministic PBPK and Fup
Human MDR1 = Human MDR1 (Homo sapiens, UniProt P08183); settings: not told
[9] = tested on: panel of 83 pharmacological targets
Source text: The set of targets was extended to broaden the biological coverage.
Results showing an inhibition or stimulation higher than 50% are considered to represent significant effects (i.e. a “hit”).

estrogen receptor [10] = tested on: estrogen receptor; set-up: method as in ToxCast database; settings: ref ToxCast database; cited from earlier work; remark: listed apart in the source
estrogen receptor (ER) = settings: ref ToxCast, cited from earlier work

COX1(h), sequence (P23219 24-599): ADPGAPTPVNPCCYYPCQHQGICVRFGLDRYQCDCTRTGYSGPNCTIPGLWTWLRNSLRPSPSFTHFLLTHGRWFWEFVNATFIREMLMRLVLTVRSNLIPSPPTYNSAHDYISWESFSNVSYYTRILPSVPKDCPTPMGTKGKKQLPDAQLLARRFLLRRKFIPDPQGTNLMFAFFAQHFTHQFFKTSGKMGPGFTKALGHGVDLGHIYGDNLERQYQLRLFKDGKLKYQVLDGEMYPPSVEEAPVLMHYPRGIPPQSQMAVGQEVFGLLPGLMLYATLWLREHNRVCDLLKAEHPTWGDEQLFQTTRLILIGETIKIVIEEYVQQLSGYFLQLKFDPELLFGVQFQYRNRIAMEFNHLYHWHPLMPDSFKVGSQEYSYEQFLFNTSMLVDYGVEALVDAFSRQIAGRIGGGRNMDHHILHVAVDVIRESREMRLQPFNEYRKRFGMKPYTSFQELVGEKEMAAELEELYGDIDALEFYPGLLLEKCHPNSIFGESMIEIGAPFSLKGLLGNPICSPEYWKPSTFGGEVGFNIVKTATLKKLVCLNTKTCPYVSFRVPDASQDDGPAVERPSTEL
Human MDR1, sequence (P08183 whole entry): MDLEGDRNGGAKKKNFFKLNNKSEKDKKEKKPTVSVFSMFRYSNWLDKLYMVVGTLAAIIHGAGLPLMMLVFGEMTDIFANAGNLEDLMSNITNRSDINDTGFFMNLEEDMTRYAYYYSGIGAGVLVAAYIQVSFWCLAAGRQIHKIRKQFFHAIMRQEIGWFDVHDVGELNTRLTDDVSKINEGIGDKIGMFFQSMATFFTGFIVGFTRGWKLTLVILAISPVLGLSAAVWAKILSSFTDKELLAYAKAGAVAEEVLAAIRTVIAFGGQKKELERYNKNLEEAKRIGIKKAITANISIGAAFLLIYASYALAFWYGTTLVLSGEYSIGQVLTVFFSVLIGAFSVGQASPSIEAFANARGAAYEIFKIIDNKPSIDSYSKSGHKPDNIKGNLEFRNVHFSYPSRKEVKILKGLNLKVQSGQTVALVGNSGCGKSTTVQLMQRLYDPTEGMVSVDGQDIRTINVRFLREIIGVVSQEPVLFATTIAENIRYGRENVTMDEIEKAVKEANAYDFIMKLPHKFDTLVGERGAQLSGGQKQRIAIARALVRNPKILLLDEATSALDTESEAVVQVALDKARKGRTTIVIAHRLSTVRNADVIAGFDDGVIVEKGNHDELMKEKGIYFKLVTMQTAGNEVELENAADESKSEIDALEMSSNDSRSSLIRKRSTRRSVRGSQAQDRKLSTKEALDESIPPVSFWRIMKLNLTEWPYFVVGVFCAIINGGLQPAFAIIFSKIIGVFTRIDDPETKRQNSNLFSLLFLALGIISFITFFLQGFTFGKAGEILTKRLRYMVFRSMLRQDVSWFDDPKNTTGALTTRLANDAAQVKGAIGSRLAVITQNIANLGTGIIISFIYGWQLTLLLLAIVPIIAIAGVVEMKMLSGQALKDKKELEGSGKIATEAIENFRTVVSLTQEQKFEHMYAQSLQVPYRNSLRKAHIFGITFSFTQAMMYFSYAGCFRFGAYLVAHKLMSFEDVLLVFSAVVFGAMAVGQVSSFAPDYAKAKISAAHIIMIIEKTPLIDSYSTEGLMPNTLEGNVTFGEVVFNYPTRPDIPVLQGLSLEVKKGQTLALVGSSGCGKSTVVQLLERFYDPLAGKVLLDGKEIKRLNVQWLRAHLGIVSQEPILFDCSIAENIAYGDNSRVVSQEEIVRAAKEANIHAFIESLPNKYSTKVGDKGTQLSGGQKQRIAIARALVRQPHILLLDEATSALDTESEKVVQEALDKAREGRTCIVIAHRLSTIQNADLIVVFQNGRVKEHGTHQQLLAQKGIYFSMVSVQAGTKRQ

O=C(O)c1ccccc1O [SA, salicylic acid]
NOAEL (rats): 75 mg/kg bw | Androgen pathway Reporter protein Agonist: Call (androgen receptor [1]): Negative | Vapor pressure [2]: 0.0208 Pa | Androgen pathway Dimerisation: Call (androgen receptor [3]): Negative | Thyroid pathway receptor binding (THRa): Call (THRa): Negative | Estrogen pathway Reporter protein Antagonist: Call (estrogen receptor [4]): Negative | Thyroid pathway Reporter protein Agonist: Call (thyroid pathway): Negative | PoD (BMDL, lowest pathway) (HepG2 cells [5]): 213 µM | PoD ([6]; ICAM1 (indicating inflammation), tested 10 μM to 10 mM): 4,000 µM | Stress pathway reporters activated ([6]; seven reporters): activated only ICAM1 | PoD (hPTCs): >300 µM | PoD (BMDL, lowest pathway) (HepG2 cells [7]): 213 μM (method 1) µM | Inhibition of COX1, screening (COX1(h); 10 µM): did not inhibit | Inhibition of COX1, follow-up (COX1(h); up to 10 mM): did not inhibit; also recorded: no effect | Steroidogenesis Aromatase: Call (Aromatase): Negative | Exposure of unbound SA compared to unbound BSal [8]: ≥ 5 fold | Substrate of MDR1 (efflux) (Human MDR1): not a substrate | PoD [9]: ≥10,000 µM | Effect on panel targets ([9]; up to millimolar concentrations): none of the targets tested were significantly impacted | Estrogen pathway Reporter protein Agonist: Call (estrogen receptor [10]): Negative | Estrogen: Experimental Data (call) (estrogen receptor (ER); Tier 0): Negative | Estrogen: assays active / assays (estrogen receptor (ER)): 0/18 active
